# Results as given in article PMC12281487, “Discovery and Validation of a Novel Class of Necroptosis Inhibitors Targeting RIPK1” (ACS Chemical Biology, 2025).
# “Also recorded” adds a separate entry of the source. Where a name gives a salt, the structure may show the parent alone. Read-outs that look alike come from different tables or passages of the source.
# What was measured:
# [1] = test system: I2.1 FADD–/– human Jurkat cells; assay: IncuCyte necroptosis assay in I2.1 cells; conditions: for EC50: read-out: EC50 (95% CI), necroptosis inhibition; for EC50 values of well-characterized necroptosis inhibitors (assay validation), in words: Figure S1e
# Experimental: A cell-based assay was established to monitor necroptosis in I2.1 cells using the IncuCyte S3 live cell microscopy platform (Figure S1a). Necroptosis was induced by treatment with TNF, and Sytox Green was used to monitor membrane permeabilization over time as an indicator of progressive necroptotic cell death (Figure S1b–d), allowing determination of the EC50 of candidate necroptosis inhibitors.
# I2.1 cells were seeded in a sterile 96-well plate (Greiner) at 20,000 cells per well and incubated at 37 °C overnight. The cells were treated with a final concentration of 600 pM TNF, 1 μM Sytox Green, and compounds in a dose-dependent manner. Wells containing TNF and Sytox Green served as positive control. Wells containing DMSO and Sytox Green served as a negative control. The plate was placed into an IncuCyte S3 Live Cell Analysis System (Sartorius) and readings for phase and green fluorescence were taken every hour for 24 h, with 4 images per well. The images were analyzed with IncuCyte 2021C software and the Green Integrated Intensity Per Image/Phase Area Per Image (GCU × μm^2/image/μm^2/image or GP) was exported. The background at t = 0 h was subtracted, and the linear slope (t = 3–7 h) was calculated by plotting GP against time. The percent inhibition of necroptosis was determined by normalizing to the positive and negative controls and graphing against the [compound]. EC50 values were determined using Prism 10 for each replicate, which were then used to calculate the geometric mean EC50 and associated 95% CIs.
# I2.1 cells in a 96-well plate were treated with TNF to induce necroptosis, a dilution series of the candidate necroptosis inhibitor and Sytox Green to monitor cell death. Plates were placed in the IncuCyte® and imaged every hour for 24 h. Cell death was measured over time and used to determine the proportion of necroptotic cells compared to those without necroptosis induction or not treated with an inhibitor. The linear portion of the graph was used to determine an initial rate for calculation of the EC50. TNF with Sytox Green and Sytox Green alone were used as positive and negative controls, respectively. […] EC50 values are expressed as the geometric mean with a 95% confidence interval (CI) of at least three biological replicates.
# HT-29 cells = assay: IncuCyte necroptosis assay in HT-29 cells; type: cell-based, human; conditions: TNF, birinapant and Z-VAD-FMK induced; Figure S1f
# From the text: Wells containing TSZ served as a positive control.
# [2] = test system: RIPK1 Ser166 phosphorylation; assay: Western blot of RIPK1 Ser166 phosphorylation in I2.1 cells; type: cell-based, human; conditions: for phosphorylation of RIPK1 Ser166 after TNF: prior treatment with 10 μM compound
# Experimental: All compound treatments were performed with a preprepared 1000× stock of the desired concentration in DMSO and added directly to the relevant plate, with a final concentration of 0.1% DMSO on the cells. TNF (final concentration 575 pM) was added to induce necroptosis, the cells incubated for 4 h and harvested.
# (§1) Cells were transferred to a microcentrifuge tube and centrifuged at 200g for 5 min, and media were removed. Cells were washed with PBS and lysed with 100 μL of lysis buffer (radioimmunoprecipitation assay lysis buffer, Sigma-Aldrich, R0278) supplemented with 1× phosphatase inhibitor cocktail 2 (Sigma, P5726) and 1× complete EDTA-free protease inhibitor cocktail (Sigma, […])) on ice for 30 min. The lysate was collected by centrifugation at 17,000g, 4 °C for 5 min, and the lysate was transferred to a new microcentrifuge tube. Protein concentration was determined using the DC Protein Assay (Bio-Rad) in a 96-well plate as per the manufacturer’s instructions and subsequently adjusted to 1 mg mL^–1 using lysis buffer. Samples were prepared by adding 4 μL of 4× loading buffer (Biorad, 161-0747) containing β-mercaptoethanol to 12 μL of protein sample and boiling at 95 °C for 10 min. 14 μL of each sample was loaded onto a 4–15% Mini-PROTEAN TGX precast gel (Biorad, 456-1086) and run in 1× running buffer (0.25 M Tris, 0.2 M glycine, 0.1% (w/v) SDS) for 1.15 h at 130 V. Either 2 μL of precision plus protein all blue prestained protein standards (Bio-Rad, 1610373) or precision plus protein dual color standards (Bio-Rad, 1610374) was used in at least one well.
# Proteins were transferred onto a nitrocellulose membrane (GE Healthcare) using the Trans-Blot Turbo Transfer System (Biorad, 1704150) at 2.5 A and 25 V for 7 min. The membrane was stained with Ponceau S to confirm protein transfer prior to blocking with 5% (w/v) nonfat dried skimmed milk in TBS-T (1× Tris-buffered saline, 0.1% (v/v) Tween-20) at rt for 1 h. Staining with the desired primary antibody in 5% (w/v) nonfat dried skimmed milk in TBS-T was performed overnight at 4 °C. The blot was washed with TBS-T at rt (3 × 5 min) and stained with secondary antibody in 5% (w/v) nonfat dried skimmed milk in TBS-T for 1 h at rt. The blot was washed with TBS-T at rt (3 × 5 min), visualized with Immobilon Crescendo Western HRP substrate, and imaged using ImageQuant LAS-4000 Imaging System (Fujifilm), and the contrast normalized in Fiji.
# Aurora kinase B = Aurora kinase B (Homo sapiens, UniProt Q96GD4); assay: Kinase panel screen (SelectScreen, Z-lyte); type: biochemical; conditions: single concentration of 1 µM, % inhibition, Figure S2c
# Sequence of Aurora kinase B (Q96GD4 whole entry): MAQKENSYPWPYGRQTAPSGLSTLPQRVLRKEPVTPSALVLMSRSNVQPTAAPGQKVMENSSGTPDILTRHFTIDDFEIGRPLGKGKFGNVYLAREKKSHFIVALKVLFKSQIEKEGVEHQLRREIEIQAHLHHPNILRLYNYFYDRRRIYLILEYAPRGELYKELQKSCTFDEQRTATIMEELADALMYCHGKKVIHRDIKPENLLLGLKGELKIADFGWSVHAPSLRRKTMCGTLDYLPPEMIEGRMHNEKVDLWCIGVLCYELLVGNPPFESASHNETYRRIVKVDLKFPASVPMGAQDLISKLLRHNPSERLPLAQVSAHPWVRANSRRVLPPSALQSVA
# Experimental: (a) Western blot analysis of RIPK1, RIPK3 and MLKL phosphorylation in HT-29 cells with treatment of necroptosis inhibitors and the 7PQ series. Results are representative of two experiments. […] Results are representative of two experiments. (c) Kinase activity panel screen. Compounds were screened at a single concentration of 1 µM at Thermofisher.
# The kinase data was provided by Thermofisher SelectScreen Biochemical Kinase Profiling service using the Z-lyte technology. Each compound was profiled at […] against a representative panel of 25 kinases.
# RIPK1 = molecular target: T1, RIPK1 (Homo sapiens, UniProt Q13546); assay: Streptavidin mass shift assay (photoaffinity labeling, target engagement) in I2.1 cells; type: cell-based; conditions: particularly after 5 min of UV irradiation
# T1 construct: Following incubation of I2.1 cells with the probe, irradiation to induce photocrosslinking; endogenous in cells; host or cells: I2.1 FADD-deficient Jurkat T cells (ATCC, CRL-2572)
# T1 sequence (Q13546 1-671): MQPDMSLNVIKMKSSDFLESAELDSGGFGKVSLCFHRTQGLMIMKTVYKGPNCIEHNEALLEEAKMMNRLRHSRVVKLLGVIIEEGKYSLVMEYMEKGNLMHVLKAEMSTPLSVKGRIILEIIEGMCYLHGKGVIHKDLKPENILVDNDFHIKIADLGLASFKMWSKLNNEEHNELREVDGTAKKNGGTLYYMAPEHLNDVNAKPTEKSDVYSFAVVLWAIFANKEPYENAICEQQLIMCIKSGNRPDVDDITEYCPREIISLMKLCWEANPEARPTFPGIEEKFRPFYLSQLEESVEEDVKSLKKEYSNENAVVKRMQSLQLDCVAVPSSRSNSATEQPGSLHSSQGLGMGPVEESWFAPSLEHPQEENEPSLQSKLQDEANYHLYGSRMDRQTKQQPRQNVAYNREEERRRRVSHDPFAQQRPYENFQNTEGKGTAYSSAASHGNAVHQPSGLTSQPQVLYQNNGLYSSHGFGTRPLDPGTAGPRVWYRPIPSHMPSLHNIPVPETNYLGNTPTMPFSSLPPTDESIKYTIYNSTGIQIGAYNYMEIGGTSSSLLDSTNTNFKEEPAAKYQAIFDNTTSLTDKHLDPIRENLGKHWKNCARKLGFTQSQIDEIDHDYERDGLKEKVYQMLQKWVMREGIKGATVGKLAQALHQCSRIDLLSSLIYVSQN
# Experimental: Target engagement was confirmed by Streptavidin mass shift assay, whereby lysates are incubated with streptavidin and subsequently separated by SDS–PAGE. The high stability of streptavidin at a range of temperatures, in various detergents and pH, in combination with the extremely high affinity for biotin means the streptavidin–biotin interaction is not separated during gel electrophoresis, resulting in a mass shift of biotin-labeled proteins in the presence of streptavidin, which can be visualized by Western blot (Figure a).
# I2.1 cells were seeded in sterile six-well plates at a density of 2 × 10^6 cells per well and incubated at 37 °C overnight. 1000× stocks of the desired concentration of compound in DMSO were preprepared. […]
# Cells were transferred to a microcentrifuge tube, centrifuged at 200g for 5 min, and media removed. […] Protein concentration was determined using the DC Protein Assay (Bio-Rad) in a 96-well plate as per the manufacturer’s instructions and the concentration adjusted to 1–2 mg mL^–1 using lysis buffer. […]
# Samples were prepared by adding 4 μL of 4× loading buffer to 10 μL of the protein samples and boiling at 95 °C for 10 min. […] In-gel fluorescence was detected by using a Typhoon FLA 9500 biomolecular imager (750 V, 100 μm pixels). […]
# [3] = test system: RIPK1, RIPK3 and MLKL phosphorylation; assay: Western blot of RIPK1, RIPK3 and MLKL phosphorylation in HT-29 cells; type: cell-based, human; conditions: TNF, birinapant and Z-VAD-FMK
# Experimental: All compound treatments were performed with a preprepared 1000× stock of the desired concentration and added directly to the relevant plate with a final concentration of 0.1% DMSO on the cells. A combination of TNF (final concentration of 1.2 nM), Birinapant (final concentration 100 nM), and Z-VAD-FMK (final concentration 20 μM) was added to induce necroptosis, the cells incubated for 7 h, and harvested.
# as §1, with “14 μL of each sample was loaded onto a 4–15% Mini-PROTEAN TGX precast gel (Biorad, 456-1086) and run in 1× running buffer (0.25 M Tris, 0.2 M glycine, 0.1% (w/v) SDS) for 1.15 h at 130 V. Either 2 μL of precision plus protein all blue prestained protein standards (Bio-Rad, 1610373) or precision plus protein dual color standards (Bio-Rad, 1610374) was used in at least one well.” left out
# C57BL/6J mice = assay: TNF-induced SIRS murine model; conditions: 5 mg/kg i.v. 15 min before TNF 0.5 mg/kg i.v.
# Experimental: Male C57BL/6J mice of 18–25 g were used at the age of 6–8 weeks. Three animals were included in each experimental group. All animal experiments were carried out with the permission of the local animal ethical committee in accordance with the EU Directive (2010/63/EU), Portuguese laws (DL113/2013, 2880/2015, 260/2016), and all relevant legislations. Animals received humane care in a temperature-controlled environment with a 12 h light–dark cycle and ad libitum access to pelleted chow and water, complying with the Institute’s guidelines, and as outlined in the “Guide for the Care and Use of Laboratory Animals” prepared by the National Academy of Sciences and published by the National Institutes of Health (NIH publication 86-23 revised 1985). […] TNF was diluted in sterile PBS. […] All injections were administered intravenously (i.v.).
# [4] = TNF-induced necroptosis, I2.1 cells, Sytox Green, geometric mean with 95% CI, at least three biological replicates
molecule,measurement,setting,value
"O=C(c1ccc(-c2cnc3ccccc3c2)cc1)N1CCOCC1 [compound 10, Morpholino(4-(quinolin-3-yl)phenyl)methanone]","EC50 (95% CI), necroptosis inhibition",[1]; [4],Inactive
"CC(C)(C)OC(=O)N1CC[C@H](CNC(=O)c2ccc(-c3ccc4cccnc4c3)cc2)C1 [compound 4, tert-Butyl (R)-3-((4-(Quinolin-7-yl)benzamido)methyl)pyrrolidine-1-carboxylate]",EC50,"[1]; Homo sapiens, Jurkat",3000 nM
"CN1C(=O)NC(Cc2c[nH]c3c(Cl)cccc23)C1=O (centres unmarked) [Nec-1s, reference compound]","EC50 values of well-characterized necroptosis inhibitors (assay validation), in words",[1]; I2.1 cells,consistent with those previously reported
"CN(C[C@H]1CCNC1)S(=O)(=O)c1ccc(-c2ccc3cccnc3c2)cc1 [compound 2, (S)-N-Methyl-N-(pyrrolidin-3-ylmethyl)-4-(quinolin-7-yl)benzenesulfonamide·HCl]",EC50,"[1]; Homo sapiens, Jurkat",1700 nM
"CC(=O)N1CC[C@H](CN(C)S(=O)(=O)c2ccc(-c3ccc4cccnc4c3)cc2)C1 [AZ’902, (S)-N-((1-Acetylpyrrolidin-3-yl)methyl)-N-methyl-4-(quinolin-7-yl)benzenesulfonamide]",necroptosis inhibition activity in HT-29 cells,HT-29 cells,confirmed
same,dose dependence of the effect on phosphorylation of RIPK1 Ser166,[2],dose dependent
same,phosphorylation of RIPK1 Ser166 after TNF,[2],blocked
same,off-target activity in a panel of 25 kinases,Aurora kinase B,off–target activity observed primarily against Aurora kinase B
same,EC50,"[1]; Homo sapiens, Jurkat",1600 nM
"O=C(c1ccc(-c2ccc3ncccc3c2)cc1)N1CCOCC1 [compound 9, Morpholino(4-(quinolin-6-yl)phenyl)methanone]","EC50 (95% CI), necroptosis inhibition",[1]; [4],Inactive
"C#CCN(CCC1(C)N=N1)S(=O)(=O)c1ccc(-c2ccc3cccnc3c2)cc1 [7PQYnD, N-(2-(3-Methyl-3H-diazirin-3-yl)ethyl)-N-(prop-2-yn-1-yl)-4-(quinolin-7-yl)benzenesulfonamide]",phosphorylation of RIPK1 Ser166 after TNF,[2],blocked
same,engagement of RIPK1 by the probe (streptavidin-shifted band),RIPK1,Dose-dependent engagement of RIPK1
same,EC50,"[1]; Homo sapiens, Jurkat",8900 nM
same,fold less potent than the parent compounds AZ’902 and AZ’320 (necroptosis inhibition),[1]; I2.1 cells,2–5 fold
"CC(C)(C)OC(=O)N1CC[C@@H](NC(=O)c2ccc(-c3ccc4cccnc4c3)cc2)C1 [compound 5, tert-Butyl (R)-3-(4-(Quinolin-7-yl)benzamido)pyrrolidine-1-carboxylate]",EC50,"[1]; Homo sapiens, Jurkat",6700 nM
"O=C(c1ccc(-c2ccc3cccnc3c2)cc1)N1CCOCC1 [compound 6, Morpholino(4-(quinolin-7-yl)phenyl)methanone]",EC50,"[1]; Homo sapiens, Jurkat",23000 nM
"COc1nccnc1NS(=O)(=O)c1ccc(NC(=O)/C=C/c2ccc([N+](=O)[O-])s2)cc1 [NSA, Necrosulfonamide, reference compound]","phosphorylation of necrosome components (RIPK1, RIPK3, MLKL)",[3],retained phosphorylation of all components of the necrosome
same,"EC50 values of well-characterized necroptosis inhibitors (assay validation), in words",[1]; I2.1 cells,consistent with those previously reported
"CC(=O)N1CC[C@@H](CN(C)S(=O)(=O)c2ccc(-c3ccc4cccnc4c3)cc2)C1 [compound 1, (R)-N-((1-Acetylpyrrolidin-3-yl)methyl)-N-methyl-4-(quinolin-7-yl)benzenesulfonamide]",EC50,"[1]; Homo sapiens, Jurkat",1000 nM
"CC(C)S(=O)(=O)c1ccc2nccc(Nc3ccc4scnc4c3)c2c1 [GSK’872, reference compound]",phosphorylation of RIPK1 Ser166 after TNF,[2],no inhibition
same,"phosphorylation of necrosome components (RIPK1, RIPK3, MLKL)",[3],inhibited phosphorylation of RIPK3 and MLKL but not RIPK1
same,"EC50 values of well-characterized necroptosis inhibitors (assay validation), in words",[1]; I2.1 cells,consistent with those previously reported
tert-Butyl(S)-3-(((N-methyl-4-(quinolin-7-yl)phenyl)sulfonamido)methyl)pyrrolidine-1-carboxylate [compound 3],EC50,[1]; [4],2500 nM
"O=C(c1ccc(-c2ccc3cnccc3c2)cc1)N1CCOCC1 [compound 8, (4-(Isoquinolin-6-yl)phenyl)(morpholino)methanone]","EC50 (95% CI), necroptosis inhibition",[1]; [4],Inactive
"O=C(c1ccc(-c2ccc3nccnc3c2)cc1)N1CCOCC1 [compound 12, Morpholino(4-(quinoxalin-6-yl)phenyl)methanone]","EC50 (95% CI), necroptosis inhibition",[1]; [4],Inactive; also recorded: loss of activity
"O=C(c1ccc(-c2ccc3ccccc3n2)cc1)N1CCOCC1 [compound 11, Morpholino(4-(quinolin-2-yl)phenyl)methanone]","EC50 (95% CI), necroptosis inhibition",[1]; [4],Inactive
"O=C(c1ccc(-c2ccc3ccncc3c2)cc1)N1CCOCC1 [compound 7, (4-(Isoquinolin-7-yl)phenyl)(morpholino)methanone]","EC50 (95% CI), necroptosis inhibition",[1]; [4],Inactive
"CS(=O)(=O)CC1CN(S(=O)(=O)c2ccc(-c3ccc4cccnc4c3)cc2)C1 [AZ’320, 7-(4-((3-((Methylsulfonyl)methyl)azetidin-1-yl)sulfonyl)phenyl)quinoline]",dose dependence of the effect on phosphorylation of RIPK1 Ser166,[2],dose dependent
same,off-target activity in a panel of 25 kinases,Aurora kinase B,off–target activity observed primarily against Aurora kinase B
same,effects on temperature and body weight after TNF,C57BL/6J mice,rescuing effects on temperature and body weight
same,protection from TNF-induced mortality (survival),C57BL/6J mice; 3 mice per group,completely reverted the toxic effects induced by TNF; also recorded: preventing mortality
same,EC50,"[1]; Homo sapiens, Jurkat",4900 nM
